Experimental data from article PMC12647017, “Discovery and optimization of a synthetic small protein domain targeting antibodies” (Frontiers in Bioengineering and Biotechnology, 2025).

Experiments:
[1] = system: human IgG; assay: Microscale Thermophoresis (MST) with IgG-FITC; type: binding; conditions: E6, IgG-FITC 50 nM, E6 23.5 µM to 0.7 nM, 50 mM MOPS 0.05% (v/v) Tween-20 pH 7, 25 °C, n = 4
Experimental: For MST assays of E6, IgG was conjugated with fluoresceine isothiocyanate (FITC) using standard protocols. The conjugated IgG-FITC was used at a fixed concentration of 50nM and 16 serial dilutions of E6 protein (from 23.5 µM to 0.7 nM) were made in 50 mM MOPS 0.05% (v/v) Tween-20 pH 7.
For MST assays of E6_M2_T2, the target was hIgG-FITC (F9636, Sigma) at a constant concentration of 25 nM. For the E6_M2_T2 ligand, 16 samples were prepared in variable concentrations starting from 695 nM and using a serial dilution of 1:2 up to a minimum concentration of […] using PBS1x-0.05% (v/v) Tween-20 pH7.4.
Samples were transferred to a standard capillary (Monolith NT.115 Capillary, Nanotemper) with the following settings: medium MST-power, excitation power at 20%, with excitation in Nano-Blue, with thermostat at 25 °C. The signal of the samples was read in triplicates using a Monolith NT.115 (Nanotemper) and the signal was processed in the manufacturer software with FitModel: Kd and Hill. The binding parameters (KD and EC50) and were estimated automatically in the MST software.

[2] = Partition of expressed E6 between soluble and insoluble fraction; type: physicochemical; conditions: E. coli Rosetta (DE3), supplementation with L-arginine / L-glutamic acid (tests E and H), Tris-Tricine gel
Experimental: The gene corresponding to the chosen E6 sequence was cloned according to the detail information in Supplementary Material. The bacterial clones with the insert DNA were selected for protein expression in E. coli Rosetta (DE3) cells. For this purpose, the DNA was purified with NZYMiniprep kit and was used for transformation onto E. coli Rosetta competent cells following the protocol of the manufacturer. For the protein expression, a pre-inoculum was prepared adding 5 µL of the transformed colonies glycerol stock in 5 mL LB medium containing ampicillin (vector resistance) and […] (strain resistance). After 6 h of incubation, 1 mL of the culture was added to 100 mL of LB medium and was incubated overnight at 37 °C at 225 rpm. On the following day, 10 mL of the culture was inoculated onto 1 L of LB medium and was incubated at 37 °C at 225 rpm. […]
The WWp5_4 scaffold is composed by 42 amino acid residues with a molecular weight of approximately 5 kDa. […] The protein expression profile was evaluated under normal expression conditions (without supplementation of amino acids, test A) and a strong band at ∼ 5 kDa is visible (Supplementary Figure S3A). […] To assess whether test E or test H has higher content of soluble E6, bacterial cells were lysed and the soluble supernatant analysed. […]

## SMGLPPGWDEYKT RRFKL GKTYYYNH HILS KTSTWTDPRMSS [Clone E6]
[1]
  EC50: 146 nM
[1]; read-out: dissociation constant, KD
  Kd: 133 ± 48 nM
[2]
  soluble fraction of expressed protein: 16%
